Where a name gives a salt, the structure may show the parent alone.
System: DOPAC (3,4-dihydroxyphenylacetic acid) in the rat striatum
Assay: Increase of DOPAC in the rat striatum (in vivo neurochemistry)
Details: Rattus norvegicus, sc, read-out: ED50 DOPAC
From the text: After the behavioural activity sessions, the rats were decapitated and their brains rapidly taken out and put on an ice-cold petri-dish. The limbic forebrain, the striatum, the frontal cortex and the remaining hemispheral parts of each rat were dissected and frozen. Each brain part was subsequently analyzed with respect to its content of monoamines and their metabolites.
The monoamine transmitter substances (NA (noradrenaline), DA (dopamine), 5-HT (serotonin)) as well as their amine (NM (normethanephrine), 3-MT (3-methoxytyramine)) and acid (DOPAC (3,4-dihydroxylphenylacetic acid), 5-HIAA (5-hydroxyindoleacetic acid), HVA (homovamllic acid)) metabolites are quantified in brain tissue homogenates by HPLC separations and electrochemical detection
The analytical method is based on two chromatographic separations dedicated for amines or acids. Two chromatographic systems share a common auto injector with a 10-port valve and two sample loops for simultaneous injection on the two systems. Both systems are equipped with a reverse phase column (Luna C18(2), dp 3 μM, 50*2 mm i.d., Phenomenex) and electrochemical detection is accomplished at two potentials on glassy carbon electrodes (MF-1000, Bioanalytical Systems, Inc.). The column effluent is passed via a T-connection to the detection cell or to a waste outlet. This is accomplished by two solenoid valves, which block either the waste or detector outlet. By preventing the chromatographic front from reaching the detector, better detection conditions are achieved. […] Detection potentials relative to Ag/AgCl reference are 0.45 and 0.60V. […] Detection potentials relative to Ag/AgCl reference are 0.45 and 0.65V.
ED50 values for the increase of DOPAC in striatum are calculated by curve fitting.

SMILES | ED50 [µmol/kg]
CCCN1CCC(c2cccc(C(F)(F)F)c2)CC1 [reference compound] | 84

Same assay, conditions: sc; increase of DOPAC in rat striatum after systemic administration (s.c.); maximal effects limited to 350-400% of control; range covers 95% of fits; read-out: ED50 DOPAC

SMILES | ED50 [µmol/kg]
CCN1CCC(c2cccc(S(C)(=O)=O)c2F)CC1 [drawing 10] | 68
CCN1CCC(c2cccc(C(=O)C(F)(F)F)c2F)CC1 | 12
COCCN1CCC(c2cccc(S(C)(=O)=O)c2)CC1 [reference compound] | 208
COCCN1CCC(c2cccc(S(C)(=O)=O)c2F)CC1 [drawing 12] | 84

System: not given
Assay: not given
Details: not given

SMILES | melting point [°C]
CCN1CCC(c2cccc(C(C)=O)c2F)CC1 | 199 to 202
CCCN1CCC(c2cccc(OC(F)(F)F)c2O)CC1 (as salt: hydrochloric acid salt) [Example 30, 2-(1-PROPYLPIPERIDIN-4-YL)-6-(TRIFLUOROMETHOXY)PHENOL] | 203 to 205
CCCN1CCC(c2cccc(S(C)(=O)=O)c2C)CC1 (as salt: hydrochloric acid salt) [Example 4, 4-[2-METHYL-3-(METHYLSULFONYL)PHENYL]-1-PROPYLPIPERIDINE] | 233 to 235
CCCN1CCC(c2cccc(C(F)(F)F)c2C#N)CC1 (as salt: hydrochloric acid salt) [Example 7, 2-(1-PROPYLPIPERIDIN-4-YL)-6-(TRIFLUOROMETHYL)BENZONITRILE] | 272 to 274
CCN1CCC(c2cccc(S(C)(=O)=O)c2F)CC1 (as salt: maleic acid salt) [Example 2, 1-ETHYL-4-[2-FLUORO-3-(METHYLSULFONYL)PHENYL]-PIPERIDINE] | 112 to 113
CCCN1CCC(c2cccc(C(F)(F)F)c2OC)CC1 (as salt: hydrochloric acid salt) [Example 8, 4-[2-METHOXY-3-(TRIFLUOROMETHYL)PHENYL]-1-PROPYLPIPERIDINE] | 235.5
CCCN1CCC(c2cccc(S(C)(=O)=O)c2Cl)CC1 (as salt: hydrochloric acid salt) [Example 3, 4-[2-CHLORO-3-(METHYLSULFONYL)PHENYL]-1-PROPYLPIPERIDINE] | 250 to 252
CCN1CCC(c2cccc(C(=O)C(F)(F)F)c2F)CC1 (as salt: fumaric acid salt) | 109 to 110
C=CCN1CCC(c2cccc(C(F)(F)F)c2F)CC1 (as salt: hydrochloric acid salt) [Example 70, 1-ALLYL-4-[2-FLUORO-3-(TRIFLUOROMETHYL)PHENYL]PIPERIDINE] | 224 to 226
COCCN1CCN(c2cccc(C(F)(F)F)c2F)CC1 (as salt: hydrochloric acid salt) [Example 10, 1-[2-FLUORO-3-(TRIFLUOROMETHYL)PHENYL]-4-(2-METHOXYETHYL)PIPERAZINE] | 170 to 171
OCCCN1CCC(c2cccc(C(F)(F)F)c2F)CC1 (as salt: hydrochloric acid salt) [Example 32, 3-{4-[2-FLUORO-3-(TRIFLUOROMETHYL)PHENYL]PIPERIDIN-1-YL}PROPAN-1-OL] | 259 to 261
CCN1CCC(c2cccc(S(=O)(=O)C(F)(F)F)c2F)CC1 (as salt: hydrochloric acid salt) | 189 to 191
C=CCN1CCC(c2cccc(S(C)(=O)=O)c2F)CC1 (as salt: hydrochloric acid salt) [Example 40, 1-ALLYL-4-[2-FLUORO-3-(METHYLSULFONYL)PHENYL]PIPERIDINE] | 259 to 261
CCCN1CCN(c2cccc(C#N)c2C(F)(F)F)CC1 (as salt: hydrochloric acid salt) | 234 to 236
CCCN1CCN(c2cccc(S(C)(=O)=O)c2F)CC1 (as salt: hydrochloric acid salt) | 241 to 243
CCN1CCC(c2cccc(S(C)(=O)=O)c2Cl)CC1 (as salt: hydrochloride) [Example 28, 4-[2-CHLORO-3-(METHYLSULFONYL)PHENYL]-1-ETHYLPIPERIDINE] | 264 to 265
CCCN1CCC(c2cccc(S(C)(=O)=O)c2N)CC1 (as salt: hydrochloric acid salt) [Example 6, 2-(METHYLSULFONYL)-6-(1-PROPYLPIPERIDIN-4-YL)ANILINE] | 232 to 233
CCN1CCN(c2cccc(S(C)(=O)=O)c2F)CC1 (as salt: hydrochloric acid salt) | 214 to 216
OCCN1CCC(c2cccc(C(F)(F)F)c2F)CC1 (as salt: hydrochloric acid salt) [Example 27, 2-{4-[2-FLUORO-3-(TRIFLUOROMETHYL)PHENYL]PIPERIDIN-1-YL}ETHANOL] | 224 to 226
CCCN1CCC(c2cccc(C(F)(F)F)c2O)CC1 (as salt: hydrochloric acid salt) [Example 29, 2-(1-PROPYLPIPERIDIN-4-YL)-6-(TRIFLUOROMETHYL)PHENOL] | 218 to 220
CS(=O)(=O)c1cccc(C2CCN(CCC3OCCO3)CC2)c1F (as salt: hydrochloric acid salt) [Example 26, 1-[2-(1,3-DIOXOLAN-2-YL)ETHYL]-4-[2-FLUORO-3-(METHYLSULFONYL)PHENYL]-PIPERIDINE] | 224 to 225
CCCN1CCC(c2cccc(C#N)c2C(F)(F)F)CC1 (as salt: hydrochloric acid salt) [Example 13, 3-(1-PROPYLPIPERIDIN-4-YL)-2-(TRIFLUORO-METHYL)BENZONITRILE] | 266 to 269
COCCN1CCC(c2cccc(C(F)(F)F)c2F)CC1 (as salt: hydrochloric acid salt) [Example 47, 4-[2-FLUORO-3-(TRIFLUOROMETHYL)PHENYL]-1-(2-METHOXYETHYL)PIPERIDINE] | 180 to 181
CCCN1CCC(c2cccc(S(C)(=O)=O)c2F)CC1 (as salt: hydrochloric acid salt) [Example 1, 4-[2-FLUORO-3-(METHYLSULFONYL)PHENYL]-1-PROPYLPIPERIDINE] | 255 to 257
CCCN1CCN(c2cccc(C(F)(F)F)c2F)CC1 (as salt: hydrochloric acid salt) [Example 9, 1-[2-FLUORO-3-(TRIFLUOROMETHYL)PHENYL]-4-PROPYLPIPERAZINE] | 180 to 181
CCCN1CCN(c2cccc(Cl)c2Cl)CC1 (as salt: hydrochloric acid salt) [Example 11, 1-(2,3-DICHLOROPHENYL)-4-PROPYLPIPERAZINE] | 220 to 221
CCN1CCC(c2cccc(OS(=O)(=O)C(F)(F)F)c2F)CC1 (as salt: methanesulfonate) [Example 34, 3-(1-ETHYLPIPERIDIN-4-YL)-2-FLUOROPHENYL TRIFLUOROMETHANESULFONATE] | 158 to 159
CCCN1CCC(c2cccc(C(F)(F)F)c2F)CC1 (as salt: hydrochloric acid salt) [Example 71, 4-[2-FLUORO-3-(TRIFLUOROMETHYL)PHENYL]-1-PROPYLPIPERIDINE] | 258 to 260
CCN1CCC(c2cccc(S(=O)(=O)N(C)C)c2F)CC1 (as salt: fumaric acid salt) | 151 to 152

System: drug-naive rats
Assay: Locomotor activity in drug-naive rats
Details: drug-naive habituated rats, 11 μmol/kg, recorded between 30 and 60 minutes, ± SEM

SMILES | Locomotor activity
CCN1CCC(c2cccc(S(C)(=O)=O)c2F)CC1 [drawing 36] | 2254 ± 804 counts/30 min
COCCN1CCC(c2cccc(S(C)(=O)=O)c2F)CC1 [drawing 38] | 1836 ± 504 (P = 0.064) counts/30 min

Same assay, conditions: drug-naive habituated rats, 33 μmol/kg, recorded between 30 and 60 minutes, ± SEM

SMILES | Locomotor activity
CCN1CCC(c2cccc(S(C)(=O)=O)c2F)CC1 [drawing 36] | 2499 ± 766 (P = 0.1) counts/30 min
COCCN1CCC(c2cccc(S(C)(=O)=O)c2F)CC1 [drawing 38] | 1258 ± 623 counts/30 min

Same assay, conditions: drug-naive habituated rats, 100 μmol/kg, recorded between 30 and 60 minutes, ± SEM

SMILES | Locomotor activity
CCN1CCC(c2cccc(S(C)(=O)=O)c2F)CC1 [drawing 36] | 2418 ± 703 (P = 0.1) counts/30 min
COCCN1CCC(c2cccc(S(C)(=O)=O)c2F)CC1 [drawing 38] | 1085 ± 211 counts/30 min

Same assay, conditions: drug-naive rats, 11 μmol/kg, recorded for 60 minutes, ± SEM

SMILES | Locomotor activity [counts/60 min]
CCN1CCC(c2cccc(S(C)(=O)=O)c2F)CC1 [drawing 29] | 13113 ± 1795

Same assay, conditions: drug-naive rats, 33 μmol/kg, recorded for 60 minutes, ± SEM

SMILES | Locomotor activity [counts/60 min]
CCN1CCC(c2cccc(S(C)(=O)=O)c2F)CC1 [drawing 29] | 12744 ± 1291

Same assay, conditions: drug-naive rats, 100 μmol/kg, recorded for 60 minutes, ± SEM

SMILES | Locomotor activity [counts/60 min]
CCN1CCC(c2cccc(S(C)(=O)=O)c2F)CC1 [drawing 29] | 12530 ± 2577
